Laboratory results reported in patent US9884084B2, “Bone loss preventing and bone regeneration or bone formation promoting pharmaceutical composition comprising muramyl dipeptide” (SNU R&DB FOUNDATION, priority 2012, dated 2018).

Columns and labels:
[1] = test system: Runx2; assay: 6XOSE/Luc luciferase reporter assay of Runx2 transcriptional activity in MC4 cells; type: cell-based
Procedure: Further to examine whether the increased expression of Runx2, which is a transcription factor, affects the expression of other genes regulated by Runx2, the following experiments were performed. For this, MC4 cells were seeded onto each well of a 96 well plate at the concentration of 20,000 cells/well and the cells were transfected with a plasmid 6XOSE/Luc reporter vector (Journal of Biological Chemistry. 285: 3568-3574 (2010)) which expresses luciferase gene under the control of osteocalcin using Lipofectamin® (Life technologies, Inc) according to the manufacturer's instruction. The promoter in the plasmid contains […] to each of which Runx2 binds. By binding of Runx2 to the motif, the expression of luciferase increases. After 16 hrs after the transfection, MDP at the concentration as indicated in FIG. 3 was added to the cells. After 24 hrs, the cells were lysed and the luciferase activity was measured using Luciferase detection kit (Promega, USA) according to the manufacturer's instruction to quantify the mRNA level of osteocalcin gene, which is affected by Runx2.
In addition to MDP as used in Example 2-1, as a derivative thereof, M-TriLYS (MurNAc-Ala-D-isoGln-Lys, N-acetylmuramyl-L-alanine-D-isoglutamine-lysine) and 6-O-stearoyl-N-acetylmuramyl-L-alanyl-D-isoglutamine (L18-MDP) were used to examine the effect of the derivatives on the expression of Runx2 at transcription level. M-TriLYS is a muropeptide obtainable from peptidoglycans of lactobacillus or salivarius and contains in its structure muramyl dipeptide. L18-MDP is a MDP derivative containing C18 fatty acid.

[2] = test system: osteoblast cell line MC4 cells (MC3T3-E1 Subclone 4); assay: Osteoblast differentiation by alkaline phosphatase (ALP) staining, MC4 cells; type: cell-based; details: 0.1, 1 and 10 μg/ml MDP, 5 days, differentiation medium; FIG. 1
Procedure: N-acetylmuramyl-L-Alanyl-D-Isoglutamine commercially available from Invivogen Inc. was dissolved in endotoxin free purified water to make a solution of 5 mg/ml. To assess the effect of muramyl dipeptide on the differentiation of osteoblast, osteoblast cell line MC4 cells (ATCC CRL-2593:MC3T3-E1 Subclone 4) were incubated in an ascorbic acid free-αMEM medium containing 10% fetal bovine serum, 50 unit/ml penicillin, 50 μg/ml streptomycin at 37° C. under 100% humidity and 5% CO2 atmosphere. The medium was changed every 3 days.
Then MC4 cells were seeded onto each well of a 48 well plate at the concentration of 20,000 cells/well and then after 16 hrs, each well was treated for 5 days with 400 μl of 0, 0.1, 1 and 10 μg/ml of MDP as prepared above in the differentiation medium (50 μg/ml ascorbic acid and 10 mM beta-glycerophosphate containing αMEM), during which half of the medium was changed twice with the differentiation medium. The effect on the differentiation was analyzed using alkaline phosphatase (ALP) staining. Results are shown in FIG. 1, in which the effect on the differentiation was determined by the number of cells showing red-purple color as well as the intensity of the color. […] Each experiment was repeated at least 3 times.

[3] = test system: Runx2; assay: RT-PCR of Runx2 mRNA in MC4 cells; type: cell-based; details: 6 hrs, normalized relative to β-actin, FIG. 2 upper part
Procedure: Then, total mRNA was extracted from the cells and incubated with random primer at 70° C. for 5 min. After that reverse transcriptase, buffer for RT and dNTPs were added to the reaction mixture and incubated at 42° C. for 1 hr to synthesize cDNA, which was then used as a template for PCR to amplify Runx2 using specific primers as described in Table 1 and using the following condition: cDNA was initially denatured at 94° C. for 5 min followed by 25 cycles at 95° C. for 40 s, 59° C. for 40 s, and 72° C. for 40 s and final extension for 5 min at 72° C. […] The results were normalized relative to β-actin data.

[4] = test system: Runx2; assay: Immunoblot of Runx2 protein in MC4 cells; type: cell-based; details: 24 hrs, β-actin loading control, FIG. 2 lower part
Procedure: Also to examine the effect at the protein level, whole cell extract was prepared from the cells treated with MDP for 24 hrs as described above, and 40 μg of extract was used for SDS-PAGE electrophoresis. Then the gel was transferred to a PVDF membrane and immunoblot was performed using an antibody specific to Runx2 (Abcam, USA). […] The β-actin was used as a loading control.

[5] = test system: WT C57BL/6 (B6) mice; assay: Bone volume of mouse femur by microCT after MDP administration; type: in vivo
Procedure: Six-week-old WT C57BL/6 (B6) mice were purchased from Orient Company Ltd (Seoul, Korea). The animals were maintained at a controlled temperature (21±1° C.) and humidity (55±1%) with a 12/12-h light-dark cycle without any restriction of food and water. All animal experiments were performed following the protocol approved by the Institutional Animal Care and Use Committee of CRISNUH.
(§1) To each mouse, 1.25 mg/kg of MDP prepared as described in Example 1 was administered twice with a 4 day interval by intraperitoneal injection. Physiological saline was used as a control. The second injection was given 4 days after the first injection and after 3 days the mice were sacrificed and used for bone volume analysis.
A right femur was removed from the sacrificed mouse and stripped of the muscle. The excised femur was then fixed in 10% of neutral formalin for one day at the least, which was then analyzed for bone volume using microCT. […] In FIG. 5, BV/TV=Bone volume/Tissue volume=% bone volume.

[6] = test system: WT C57BL/6 (B6) mice; assay: Histological observation (H&E) of mouse femur; type: in vivo; details: 1.25 mg/kg i.p. twice, vs physiological saline control; FIG. 6
Procedure: as §1
The femur used for the analysis of bone volume in Example 3-3 was used for a histological observation. For this, the femur was demineralized in 10% EDTA for 7 days and washed with running water for 12 hrs in a tissue capsule. After that, the femur was treated with alcohol and xylene and embedded in paraffin, from which sections having a thickness of 4 μm were prepared. The sections were then placed on a slide glass and deparaffinized at 65° C. for 30 min and treated with Hematoxylin and Eosin according to the conventional method.
The slides were then examined with a light microscope to observe the bone formation.

[7] = test system: osteoblast; assay: OPG and RANKL regulation in the osteoblast (data not shown); type: cell-based
[8] = test system: mouse model treated with GST-RANKL; assay: GST-RANKL induced bone loss mouse model, microCT bone volume; type: in vivo; details: pretreatment 1.25 mg/kg i.p. twice, then GST-RANKL 1 mg/kg i.p. three times; vs controls not pretreated; FIG. 8
Procedure: Muramyl dipeptide was administered to a mouse by an intraperitoneal injection two times with four day interval between the administration at the concentration of 1.25 mg/kg. After 3 days of the administration, GST-RANKL recombinant protein was intraperitoneally administered at the concentration of 1 mg/kg three times with a 24 hr interval between the administrations, The bone volume was analyzed at 1 day after the last administrated with GST-RANKL. The recombinant protein was prepared using a RANKL expression vector, pGEX-GST-RANKL (J. Clin Invest. 106:1481-1488 (2000)), which was expressed in E. coli and the protein was purified using a sepharose gel attached with glutathione (glutathione-sepharose gels, Sigma-Aldrich). The purified protein was then treated with Detoxi-gel endotoxin removing gel (Thermo Scientific, USA) to remove endotoxin and used for the experiment. Seven days after the administration, mice were sacrificed and the bone volume was measured using a microCT. As controls, mice treated only with physiological saline, GST-RANKL or physiological saline and GST-RANKL in a consecutive order were used.

[9] = test system: RANKL-primed osteoclast precursors; assay: Osteoclast differentiation from RANKL-primed osteoclast precursors, TRAP staining; details: 20 ng/ml M-CSF, 3 days; FIG. 7 right graph
Procedure: Bone marrow cells (BMs) were isolated from the long bones of mouse and were cultured in α-MEM supplemented with 10% FBS, 100 U/ml penicillin and 100 μg/ml streptomycin, and 2 ng/ml M-CSF for 1 day. Suspended cells were differentiated into BMMs with 20 ng/ml M-CSF for 3 days. […] To make RANKL-primed osteoclast precursors, the BMMs were stimulated with 20 ng/ml mouse RANKL for 48 h. The BMMs were incubated with 20 ng/ml M-CSF in the presence or absence of MDP for additional 3 days.
The differentiation was determined by tartrate resistant acid phosphatase (TRAP) staining using Leukocyte acid phosphate-staining kit (Sigma-Aldrich Chemical, USA) according to the manufacturer's instruction. After the staining, TRAP-positive multinucleated cells with at least 3 nuclei were enumerated as mature osteoclasts with an inverted phase-contrast microscope and results are shown in FIG. 7.

[10] = 1.25 mg/kg i.p. twice, vs physiological saline control, FIG. 5

Substance | expression of Runx2 at the transcriptional level (reporter) ([1]; FIG. 3B) | activity on Runx2 compared with MDP ([1]; higher than that of MDP, FIG. 3B) [times] | differentiation of MC4 (ALP staining) [2] | mRNA expression of Runx2 [3] | expression of Runx2 protein [4] | luciferase activity (transcription of osteocalcin, affected by Runx2) ([1]; MC4 cells, 24 hrs after addition, FIG. 3A) | bone volume (microCT 3D image) ([5]; 1.25 mg/kg i.p. twice with 4 day interval, right femur, vs physiological saline, FIG. 4) | Trabecular bone volume (BV/TV) [5, 10] | Trabecular number (Tb.N) [5, 10] | Trabecular thickness (Tb.Th) [5, 10] | spongy bone in femur sections (H&E) [6] | Osteoprotegerin (OPG) regulation in the osteoblast [7] | RANKL regulation in the osteoblast [7] | indirect effect on osteoclast differentiation ([7]; through OPG and RANKL in the osteoblast) | bone loss due to GST-RANKL (bone volume, microCT) [8] | osteoclast differentiation from RANKL-primed osteoclast precursors [9]
6-O-stearoyl-N-acetylmuramyl-L-alanyl-D-isoglutamine [L18-MDP] | increased the expression of Runx2 at the transcriptional level | 10 |  |  |  |  |  |  |  |  |  |  |  |  |  | 
N-acetylmuramyl-L-Alanyl-D-Isoglutamine [MDP] | increased the expression of Runx2 at the transcriptional level |  | increased in a concentration dependent manner | increased after MDP treatment in a concentration dependent manner | increased the expression of Runx2 protein | increased the transcription of osteocalcin | increase in bone volume | increased statistically significantly | increased statistically significantly | increased statistically significantly | more spongy bone was observed | up-regulation | down-regulation | indirectly alleviated osteoclast differentiation | reduced | did not affect
N-acetylmuramyl-L-alanine-D-isoglutamine-lysine [MTnLYS] | increased the expression of Runx2 at the transcriptional level |  |  |  |  |  |  |  |  |  |  |  |  |  |  | 
